In assay [1] the test system is OMP25–msGFP–HaloTag fusion protein in HEK293T cells. Description: Pulse–chase HaloTag labeling efficiency, SDS–PAGE/in-gel fluorescence. As to conditions: 2 h, mean ± SEM. Type of assay: cell-based. The procedure:
PBS, 2% (v/v) SDS, 1% (v/v) Triton x-100, 10 mM EDTA, and protease inhibitors (2 mM PMSF, aprotinin, leupeptin, and pepstatin A). Samples were then incubated at 50 °C for 3–4 min after the addition of Laemmli sample buffer (SB; Bio-Rad, 1610747) with β-mercaptoethanol (Bio-Rad, 1610710). For protein detection, 10–20 µL of the sample was subjected to SDS-PAGE, using 10% Tris-Glycine gels (TGX) (Bio-Rad, 5671034) with Tris-Glycine buffer (Bio-Rad, 1610732). […]
Quantification of HaloTag labeling efficiency using in-gel fluorescence. HEK293T cells were cultured, incubated and transfected with pF(UG) hSyn HaloTag-TEV-4×GS-msGFP-mito using lipofectamine LTX reagent as described above. To examine saturation of HaloTag, we screened for fluorescence plateau using 1 μM of JF479-HaloTag ligand,4 JF549-HaloTag ligand (2HTL) and […]
(2HTL) and JF608-HaloTag ligand (3HTL) reached a fluorescence plateau, and they were chosen as saturating counter stains or “chase” dyes for examining the labeling efficiency of biotin-JF-HaloTag ligands (13HTL–16HTL). Next, we developed an in-gel assay to independently quantitate labeling efficiencies of 13HTL–16HTL. We used JF549-HaloTag ligand (2HTL) as chase for evaluating biotin-JF608-HaloTag ligand (14HTL), biotin-JF646-HaloTag ligand (15HTL), and biotin-JF635-HaloTag ligand (16HTL). We used JF608-HaloTag ligand (3HTL) as chase for evaluating biotin-JF549-HaloTag ligand (13HTL). Each experiment consisted of testing the biotin variants 13HTL–16HTL at 100 nM and 1 μM with an incubation time of 2 h and a chase labeling incubation of 1 μM for 0.5 h. The 0.5 h chase labeling period was included with the 2 h total incubation. Each experiment consisted of the following conditions: untransfected cells; (A) transduced, but no dye; (B) non-biotinylated variant of primary label at 1 μM for 0.5 h; (C) the nonbiotinylated version of the chase JF dye at 1 μM for 0.5 h; (D) 100 nM of the nonbiotinylated version of the primary label for 2 h; (E) 100 nM of the biotinylated version of primary label for 2 h; (F) 1 μM of the nonbiotinylated version of the primary label for 2 h; (G) 1 μM of the biotinylated version of primary label for 2 h; and (H) 1 μM of the non-biotinylated version of the chase JF dye at 1 μM for 2 h. This last condition H was the same as condition C but with a longer incubation (2 h vs. 0.5 h) to allow independent verification of the chase saturation using 0.5 h incubation. Samples D–G were incubated with a nonbiotinylated chase dye at 1 μM for 0.5 h. Cells were washed and protein lysates were harvested using Bio-Rad SDS-PAGE products as described above. Specifically, cells were lysed using protein lysis buffer as described above, and adding XT Sample Buffer (Bio-Rad, 1610791) and XT Reducing Agent (Bio-Rad, 1610792). Samples were heated at 72 °C for 5 min. Samples were then loaded onto a 4–12% Criterion XT Bis-Tris gel (Bio-Rad, 3450124) and ran at 150 V for approximately 1 h. Gels were then imaged on a Chemidoc MP imager (Bio-Rad) using orange, red, and far-red filters. Bands representing HaloTag ligand were quantified by densitometry using […]
labeling efficiency calculations, bands representing saturating chase dye fluorescence (e.g., JF549) were compared to saturating primary dye fluorescence allowing estimation of the amount of […]
Where F is the fraction of HaloTag protein labeled, Ce is the experimental chase dye fluorescence signal after incubation with pulse biotin-JF-HaloTag ligand, and Cs is the saturating chase dye fluorescence without incubation with a pulse ligand.
Neuro2a cell culture, labeling, lattice light sheet microscopy (LLSM), and confocal microscopy. Neuro2a cells (ATCC, CCL-131) were cultured in Eagle's minimum essential medium (MEM, phenol red-free; Life Technologies) supplemented with 10% (v/v) fetal bovine serum (FBS), and maintained at 37 °C in a humidified 5% (v/v) CO2 environment. Cells were transiently transfected using nucleofection (Lonza) with plasmids constitutively expressing

In another assay the target is T1, HaloTag protein (Rhodococcus rhodochrous, UniProt P0A3G2, A155T/A167V/A172T/A224E/C128F/C176G/D78G/E160K/E257K/H272N/K175M/K195N/L47V/L88M/N227D/S58T/T264A/Y273L/Y87F).
T1 construct: made in house
T1 sequence (P0A3G2 other isoform, or with tags, fused parts or gaps with the stated changes): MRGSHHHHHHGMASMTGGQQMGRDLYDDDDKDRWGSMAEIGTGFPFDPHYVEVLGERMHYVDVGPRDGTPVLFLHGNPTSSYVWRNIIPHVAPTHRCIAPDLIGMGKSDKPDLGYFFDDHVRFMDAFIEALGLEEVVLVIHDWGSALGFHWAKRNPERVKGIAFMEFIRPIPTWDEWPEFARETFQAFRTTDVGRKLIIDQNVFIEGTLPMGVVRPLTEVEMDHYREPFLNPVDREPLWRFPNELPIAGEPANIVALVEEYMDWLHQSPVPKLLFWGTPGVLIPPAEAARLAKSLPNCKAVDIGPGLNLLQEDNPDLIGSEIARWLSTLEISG
Nature of the assay: Absorbance/fluorescence increase upon HaloTag binding. As to conditions: HaloTag conjugate vs free ligand. Type of assay: biochemical. The procedure: HaloTag protein purification. The bacterial expression vector pRSET-A (Invitrogen) was used to recombinantly express HaloTag (HT7; Promega).1 The soluble 6×His-Tagged HaloTag protein was affinity purified by immobilized metal affinity chromatography (IMAC) on a 5 -mL Fast Flow HiTrap Sepharose 6 column (Cytiva) with a 0–200 mM imidazole elution gradient using an Avant Protein Purification System (ÄKTA). A280 peak fractions were pooled, concentrated by a spin concentrator, and dialyzed 3× into tris-buffered saline (TBS). The amino acid sequence of HaloTag (HT7) expressed from pRSET-A is noted below; the annotated DNA and amino acid sequences […]
Spectroscopy of HaloTag ligands and HaloTag conjugates. […]
± 2 °C). Absorption spectra were recorded on a Cary Model 100 spectrometer (Agilent) using 1-cm path length 1.0-mL quartz microcuvettes from Starna Cells. Fluorescence spectra were recorded on a Cary Eclipse fluorometer (Varian) using 1-cm path length 3.5-mL quartz cuvettes (Starna Cells). […] An aliquot of HaloTag protein (1.5 equiv) was added, and the resulting mixture was incubated until a consistent absorbance signal was observed (60–120 min).
To measure the fold-increase of absorbance upon HaloTag binding, a “no HaloTag” control experiment was performed where an equivalent volume of TBS blank was added in place of the protein. […]

SMILES strings stand for the structures. Where only a bound is given, the exact number is not on record here.

The values below come from PMC12595484, “Optimizing multifunctional fluorescent ligands for intracellular labeling” (Proceedings of the National Academy of Sciences of the …, 2025).

As for `O=C(CCCCC1SCC2NC(=O)NC21)NCCOCCOCCNC(=O)C1C[N+](=c2ccc3c(-c4cc(C(=O)NCCOCCOCCCCCCCl)ccc4C(=O)[O-])c4ccc(N5CCC5)cc4oc-3c2)C1` (stereo not shown) [13HTL, biotin–JF549–HaloTag ligand], the labeling efficiency in assay [1] (100 nM pulse) and in assay [1] (1 µM pulse) was less than 3% throughout.

Turning to `C[Si]1(C)C2=CC(=[N+]3CC(C(=O)NCCOCCOCCNC(=O)CCCC[C@@H]4SC[C@@H]5NC(=O)N[C@@H]54)C3)C=CC2=C(c2cc(C(=O)NCCOCCOCCCCCCCl)ccc2C(=O)[O-])c2ccc(N3CCC3)cc21` (stereo partly shown) [15HTL, biotin–JF646–HaloTag ligand], the “fluorogenicity upon HaloTag binding” value on HaloTag protein turned out to be 2.9 fold. Moreover, the labeling efficiency in assay [1] (100 nM pulse) is on record as 13.6 ± 3.7%; in assay [1] (1 µM pulse), 61.7 ± 6.8%.

Turning to `CC1(C)C2=CC(=[N+]3CC(C(=O)NCCOCCOCCNC(=O)CCCC[C@@H]4SC[C@@H]5NC(=O)N[C@@H]54)C3)C=CC2=C(c2cc(C(=O)NCCOCCOCCCCCCCl)ccc2C(=O)[O-])c2ccc(N3CCC3)cc21` (stereo partly shown) [14HTL, biotin–JF608–HaloTag ligand], the figures for the labeling efficiency in assay [1] (100 nM pulse) and in assay [1] (1 µM pulse) were 11.3 ± 6.4% and 57.7 ± 9.6%, respectively.

As for `C[Si]1(C)C2=CC(=[N+]3CC(F)(C(=O)NCCOCCOCCNC(=O)CCCC[C@@H]4SC[C@@H]5NC(=O)N[C@@H]54)C3)C=CC2=C(c2cc(C(=O)NCCOCCOCCCCCCCl)ccc2C(=O)[O-])c2ccc(N3CC(F)C3)cc21` (stereo partly shown) [16HTL, biotin–JF635–HaloTag ligand], at HaloTag protein, the “fluorogenicity upon HaloTag binding” value worked out at 17.6 fold. The labeling efficiency in assay [1] (100 nM pulse) stood at 18.0 ± 4.9%; in assay [1] (1 µM pulse) it was 69.0 ± 4.2%.
